The numbers were not newly measured in publication PMC9377007, “An Unexpected Deuterium-Induced Metabolic Switch in Doxophylline” (ACS Medicinal Chemistry Letters, 2022), which cites them from elsewhere.

Series [1] relates to PDE-III and IV isozymes. More on the design: method as in PMID 1328102. Particulars: ref [30]; cited from earlier work.
For series [2], the system named is antibronchospastic and antiasthmatic effects. More on the design: method as in PMID 1652045. The note with it: ref [31]; cited from earlier work.

Turning to `Cn1c(=O)c2c(ncn2CC(=O)O)n(C)c1=O` [T-COOH, 7-theophylline acetic acid], the “inhibition of PDE-III and IV isozymes” value in series [1] is reported as “specific inhibition”.

On to `Cn1c(=O)c2c(ncn2CCO)n(C)c1=O` [etophylline, 7-hydroxyethyltheophylline], for which the “antibronchospastic and antiasthmatic effects relative to doxophylline” value in series [2] is on record as “significantly less active than doxophylline”.
